Source: US5763464A, “Retroviral agents containing anthranilamide, substituted benzamide and other subunits, and methods of using same” (The United States of America as represented by the …, priority 1995, dated 1998)
Like-named read-outs stand apart in the source and are kept apart here.

Experiments:
[1] = biological target: T1, HIV-1 protease (wild-type, WT) (Human immunodeficiency virus type 1 group M subtype B, UniProt P04585); test: biochemical
T1 construct: purified HIV-1 protease (wild-type, WT)
Procedure: The inhibition constants (Ki) for the compounds of the above examples were determined using purified HIV-1 protease (wild-type, WT) (Tables I, II and III). Ki is an inhibition constant of a given compound as derived by enzyme kinetics. A low Ki represents a high affinity of the compound for the enzyme, i.e., tight binding or low dissociation. Inhibition of the cleavage was assayed using a fluorogenic substrate available from Molecular Probes, Inc., Eugene, Oreg., and described in Kageyama et al., Antimicrob. Agents. Chemother., 37, 272 (1993), and a fluorogenic substrate available from Bachem California, Torrance, Calif., and described in Kageyama et al. (1993), supra. Percent inhibition is the percentage inhibition of an enzyme's activity by a given compound at a given concentration.

[2] = system: HIV-1 (CEM cells chronically infected with HIV-1); test: Anti-retroviral activity in CEM cells chronically infected with HIV-1, soluble formazan assay; type: cell-based; details: Human immunodeficiency virus 1, CCRF-CEM
Procedure: Using the soluble formazan assay described by Weislow et al. (J. Nat'l. Cancer Inst., 81, 577-586 (1989)), CEM cells chronically infected with HIV-1 were used to assay the anti-retroviral activity of test compounds described herein. The concentration of compound that inhibits 50% of viral activity (EC50; determined as described in Weislow et al. (1989), supra) and the inhibition constant (Ki, as defined in Example 7) for the compound were determined.

CEM cells = test: Toxicity (IC50) in CEM cells, soluble formazan assay; details: Homo sapiens, CCRF-CEM
[3] = Table I, unit inferred, read-out: Ki

CC(C)(C)OC(=O)N[C@@H](Cc1ccccc1)C[C@H](O)[C@H](Cc1ccccc1)NC(=O)c1ccccc1NC(=O)OCc1ccccn1 [AN-42]
Ki ([1]; Table II, read-out: Ki): 0.85 nM | EC50 ([2]; Table II, read-out: EC50): < 1000 nM | IC50 (CEM cells): 23000 nM

CC(C)(C)NC(=O)N[C@@H](Cc1ccccc1)C[C@H](O)[C@H](Cc1ccccc1)NC(=O)c1ccccc1NC(=O)OCc1ccccn1 [AN-43]
Ki ([1]; Table II, read-out: Ki): 1.05 nM | EC50 ([2]; Table II, read-out: EC50): 1600 nM | IC50 (CEM cells): 33000 nM

Nc1ccccc1C(=O)N[C@@H](Cc1ccccc1)C[C@H](O)[C@H](Cc1ccccc1)NC(=O)c1ccccc1N [AN-72]
Ki [1, 3]: 96 nM

Cc1c(O)cccc1C(=O)N[C@@H](Cc1ccccc1)[C@H](O)[C@H](O)[C@H](Cc1ccccc1)NC(=O)O[C@H]1CCOC1 [AN-76]
Ki [1]: 2 nM | EC50 ([2]; Table I): 7500 nM | IC50 (CEM cells): > 50000 nM

Cc1c(O)cccc1C(=O)N[C@@H](Cc1ccccc1)[C@@H](O)[C@@H](O)[C@H](Cc1ccccc1)NC(=O)O[C@H]1CCOC1 [AN-78]
Ki [1]: 1.43 nM | EC50 ([2]; Table I): 21000 nM | IC50 (CEM cells): > 50000 nM

Cc1c(O)cccc1C(=O)N[C@@H](Cc1ccccc1)[C@@H](O)C[C@H](Cc1ccccc1)NC(=O)c1ccc(O)cc1 [AN-88]
Ki [1, 3]: 3.65 nM

Cc1c(O)cccc1C(=O)N[C@@H](Cc1ccccc1)[C@@H](O)C[C@H](Cc1ccccc1)NC(=O)c1cccc(O)c1 [AN-89]
Ki [1, 3]: 1.88 nM

COc1ccc(S(=O)(=O)N[C@@H](Cc2ccccc2)C[C@H](O)[C@H](Cc2ccccc2)NC(=O)c2cccc(O)c2C)cc1 [AN-91]
Ki ([1]; Table I, unit printed in the line, read-out: Ki): 1500 nM

Cc1c(O)cccc1C(=O)N[C@@H](Cc1ccccc1)[C@@H](O)C[C@H](Cc1ccccc1)NC(=O)OCc1cccnc1 [AN-92, (2S,3S,5S)-2-[N-[(3-hydroxy-2-methylphenyl)carbonyl]amino]-5-[N-[(3-pyridinylmethoxy)carbonyl]amino]-1,6-diphenyl-3-hydroxy hexane]
Ki [1, 3]: 0.46 nM | EC50 ([2]; Table I, read-out: EC50): 1300 nM | IC50 (CEM cells): > 100000 nM

Cc1c(O)cccc1C(=O)N[C@@H](Cc1ccccc1)[C@@H](O)C[C@H](Cc1ccccc1)NC(=O)c1cccc(N)c1 [AN-96, (2S,3S,5S)-2-[N-[(3-hydroxy-2-methylphenyl)carbonyl]amino]-5-[N-(3-aminophenyl)carbonyl]amino-1,6-diphenyl-3-hydroxy hexane]
Ki [1]: 0.75 nM | EC50 ([2]; Table I): 630 to 58000 nM | IC50 (CEM cells): > 100000 nM

Cc1c(O)cccc1C(=O)N[C@@H](Cc1ccccc1)[C@@H](O)C[C@H](Cc1ccccc1)NC(=O)O[C@H]1CCOC1 [AN-98]
Ki [1, 3]: 0.32 nM | EC50 ([2]; Table I, read-out: EC50): 630 to 1000 nM | IC50 (CEM cells): > 100000 nM

Cc1c(O)cccc1C(=O)N[C@@H](Cc1ccccc1)C[C@H](O)[C@H](Cc1ccccc1)NC(=O)c1cccc(O)c1C [DD-8]
Ki ([1]; read-out: Ki): 0.8 nM | EC50 ([2]; Table I, read-out: EC50): 400 nM | IC50 (CEM cells): 22000 nM

O=C(Nc1ccccc1C(=O)N[C@@H](Cc1ccccc1)[C@@H](O)[C@@H](O)[C@H](Cc1ccccc1)NC(=O)c1cccc(O)c1)OCc1ccccc1 [DN-3]
Ki ([1]; Table II, read-out: Ki): 5.9 nM

O=C(Nc1ccccc1C(=O)N[C@@H](Cc1ccccc1)[C@@H](O)[C@@H](O)[C@H](Cc1ccccc1)NC(=O)c1cccc(O)c1)OCc1ccccn1 [DN-4]
Ki ([1]; Table II, read-out: Ki): 1.77 nM | EC50 ([2]; Table II, read-out: EC50): 900 nM | IC50 (CEM cells): 9000 to 28000 nM

CC(C)(C)OC(=O)N[C@@H](Cc1ccccc1)[C@@H](O)[C@@H](O)[C@H](Cc1ccccc1)NC(=O)c1ccccc1NC(=O)OCc1ccccn1 [DN-11]
Ki ([1]; Example 2, read-out: Ki): 0.4 nM | Ki ([1]; Table II, read-out: Ki): 0.45 nM | EC50 ([2]; Table II, read-out: EC50): 490 nM | IC50 (CEM cells): 21000 nM

O=C(N[C@@H](Cc1ccccc1)[C@H](O)[C@H](O)[C@H](Cc1ccccc1)NC(=O)c1cccc(O)c1)c1cccc(O)c1 [Diol-10]
Ki ([1]; Table I, unit not given): 22/25

O=C(N[C@@H](Cc1ccccc1)[C@H](O)[C@H](O)[C@H](Cc1ccccc1)NC(=O)c1ccc(O)cc1)c1ccc(O)cc1 [Diol-51]
Ki [1, 3]: 276 nM

Cc1c(O)cccc1C(=O)N[C@@H](Cc1ccccc1)[C@H](O)[C@H](O)[C@H](Cc1ccccc1)NC(=O)c1cccc(O)c1C [Diol-52]
Ki [1, 3]: 1.2 nM | EC50 ([2]; Table I): 900 nM | IC50 (CEM cells): 25000 nM

O=C(N[C@@H](Cc1ccccc1)[C@H](O)[C@H](O)[C@H](Cc1ccccc1)NC(=O)c1ccccc1)c1ccccc1 [Diol-56]
Ki [1, 3]: 40 nM

Cc1ccccc1C(=O)N[C@@H](Cc1ccccc1)[C@H](O)[C@H](O)[C@H](Cc1ccccc1)NC(=O)c1ccccc1C [Diol-57]
Ki [1, 3]: 8 nM

O=C(N[C@@H](Cc1ccccc1)[C@H](O)[C@H](O)[C@H](Cc1ccccc1)NC(=O)c1ccccc1O)c1ccccc1O [Diol-58]
Percent inhibition (Ki column) ([1]; Table I, 10μ): 32%

CC(C)C(NC(=O)OCc1ccccn1)C(=O)N[C@@H](Cc1ccccc1)C[C@H](O)[C@H](Cc1ccccc1)NC(=O)c1ccccc1NC(=O)OCc1ccccn1 (some centres unmarked) [LL-68]
Ki ([1]; Table II, read-out: Ki): 0.034 nM | EC50 ([2]; Table II, read-out: EC50): 490 nM | IC50 (CEM cells): 22000 nM

Cc1c(O)cccc1C(=O)N[C@@H](Cc1ccccc1)C[C@H](O)[C@H](Cc1ccccc1)NC(=O)c1ccccc1NC(=O)OCc1ccccn1 [LL-69]
Ki ([1]; Table II, read-out: Ki): 0.68 nM

CC(C)(C)OC(=O)N[C@@H](Cc1ccccc1)[C@@H](O)[C@@H](O)[C@H](Cc1ccccc1)NC(=O)c1ccccc1NC(=O)OCc1ccccn1 [LL-70]
Ki ([1]; read-out: Ki): 0.14 nM

CC(C)C(NC(=O)OCc1ccccn1)C(=O)N[C@@H](Cc1ccccc1)[C@@H](O)[C@@H](O)[C@H](Cc1ccccc1)NC(=O)c1ccccc1NC(=O)OCc1ccccn1 (stereo partly drawn) [LL-73, (2S,3R,4S,5S)-2-[N-(N-(2-pyridinylmethoxy)valinyl)amino]-5-[N-[N-((2-pyridinylmethoxy)carbonyl)anthranilyl]amino]-3,4-dihydroxy-1,6-diphenyl hexane]
EC50 ([2]; Table III): 4 nM | IC50 (CEM cells): 47000 nM

Cc1c(O)cccc1C(=O)N[C@@H](Cc1ccccc1)[C@@H](O)C[C@H](Cc1ccccc1)NC(=O)c1ccccc1NC(=O)OCc1ccccn1 [LL-82, (2S,3S,5S)-2-[N-[(3-hydroxy-2-methylphenyl)carbonyl]amino]-5-[N-[N-[(2-pyridinylmethoxy)carbonyl]anthranilyl]amino]-1,6-diphenyl-3-hydroxy hexane]
Ki [1]: 0.06 ± 0.018 nM | EC50 ([2]; Table III): 33 nM | IC50 (CEM cells): 40000 nM

O=C(Nc1ccccc1C(=O)N[C@@H](Cc1ccccc1)C[C@H](O)[C@H](Cc1ccccc1)NC(=O)O[C@H]1CCOC1)OCc1ccccn1 [LL-101, (2S,3S,5S)-5-[N-[N-((2-pyridinylmethoxy)carbonyl)anthranilyl]amino]2-[N-((3-S-(tetrahydrofuranyl)oxy)carbonyl)amino]-1,6-diphenyl-3-hydroxy hexane]
Ki [1]: 0.042 ± 0.007 nM

O=C(Nc1ccccc1C(=O)N[C@@H](Cc1ccccc1)[C@H](O)[C@H](O)[C@H](Cc1ccccc1)NC(=O)c1cccc(O)c1)OCc1ccccn1 [ND-4]
Ki ([1]; Table III, read-out: Ki): 0.76 nM

O=C(N[C@@H](Cc1ccccc1)C[C@H](O)[C@H](Cc1ccccc1)NC(=O)O[C@H]1CCOC1)O[C@H]1CCOC1 [RS-194]
Ki [1]: 1.68 nM | EC50 ([2]; Table I): 6500 nM | IC50 (CEM cells): > 50000 nM

CC(C)(C)OC(=O)N[C@@H](Cc1ccccc1)[C@H](O)[C@H](O)[C@H](Cc1ccccc1)NC(=O)OC(C)(C)C [RS-196]
Ki ([1]; read-out: Ki): 8.4 nM

Cc1c(O)cccc1C(=O)N[C@@H](Cc1ccccc1)[C@H](O)[C@H](O)[C@H](Cc1ccccc1)NC(=O)OC(C)(C)C [RS-198]
Ki [1, 3]: 8.3 nM

Cc1c(O)cccc1C(=O)N[C@@H](Cc1ccccc1)[C@@H](O)[C@@H](O)[C@H](Cc1ccccc1)NC(=O)OC(C)(C)C [RS-199]
Ki [1, 3]: 0.66 nM | EC50 ([2]; Table I, read-out: EC50): 1300 nM | IC50 (CEM cells): > 50000 nM

Cc1ccc(O)cc1C(=O)N[C@@H](Cc1ccccc1)C[C@H](O)[C@H](Cc1ccccc1)NC(=O)c1cc(O)ccc1C [RS-201]
Ki [1, 3]: 6.6 nM
